Measured values published in patent US20100212049A1, “Compositions and Methods of Use of Response Regulators” (Pioneer Hi-Bred International, Inc., priority 2005, published 2010).

Columns and labels:
[1] = test system: Zm response regulator 6 (ZmRR6); assay: Lynx expression experiment, leaf discs floated on BA vs water: ZmRR6; format: cell-based, maize B73; details: 6 h
Method: (§1) A Lynx experiment was performed to identify genes in the cytokinin signaling and metabolism pathway, as well as the carbohydrate pathway, whose expression is modulated in response to elevated cytokinin levels. One goal of this experiment was to identify response regulators that could be involved in the cytokinin-signaling pathway and could potentially act as Ckx1 transcriptional regulators.
(§2) Two experiments were performed: one was an initial experiment to determine the time course for BA induction of Ckx1 transcripts in leaf discs, while the second experiment used the time-course information to optimize tissue harvest for the actual Lynx study. For the time-course experiment, leaf discs (5 mm in diameter) were collected from fully expanded leaves of 8-week old maize plants (inbred B73) and were incubated in petri dishes containing water or water plus 10 μM BA for different time periods at 25° C. For the Lynx experiment ˜300 leaf-discs were punched from ear leaves collected from 5 different maize B73 plants at flowering. Half of the discs were floated in a large petri dish on a solution containing 10 μM BA; the other half were floated on distilled water. Discs were incubated for 6 h at 25° C. in the light, blotted-dried, frozen in liquid nitrogen, and then submitted for Lynx analysis.
(§3) Nevertheless, differences in levels of expression of multiple genes were detected and these are presented as genes relevant to cytokinin response, isoprenoid (or terpenoid) biosynthesis, and cell division (Table 2).
(§4) A ˜30-fold increase in Ckx1 transcripts was measured after 6 h of BA application (Table 2). […] We also identified two new response regulators whose expression is induced by BA, ZmRRS and ZmRR6 (Table 2).

Ckx1 = details: maize leaf discs incubated with BA, compared to untreated controls; cited from earlier work
[2] = test system: Zm Response regulator 5 (ZmRR5); assay: Lynx expression experiment, leaf discs floated on BA vs water: ZmRR5; format: cell-based, maize B73; details: 6 h
Method: as §1, §2, §3, §4

Ckx1 transcripts [3] = assay: Lynx expression experiment, leaf discs floated on BA vs water: Ckx1; format: cell-based, maize B73; details: 10 μM BA, 6 h
Method: as §1
as §2, with “Half of the discs were floated in a large petri dish on a solution containing 10 μM BA; the other half were floated on distilled water. Discs were incubated for 6 h at 25° C. in the light, blotted-dried, frozen in liquid nitrogen, and then submitted for Lynx analysis.” left out
as §3
A ˜30-fold increase in Ckx1 transcripts was measured after 6 h of BA application (Table 2). […]

Ckx1 transcripts [4] = assay: Time-course of Ckx1 transcript induction by BA in maize leaf discs (Northern blot); format: cell-based, maize (inbred B73); details: 10 μM BA, after 6 hours, 25° C.
Method: as §2
Time-course experiment: This perfunctory experiment was designed to learn the kinetics of Ckx1 transcript accumulation in response to BA. Ckx1 transcript levels were induced […] after 6 hours (FIG. 1).

Compound: c1ccc(CNc2ncnc3nc[nH]c23)cc1 [BA, benzyladenine]
- Up/down regulation ([1]; 10 μM BA vs water): up
- Ratio BA/Ctrl ([1]; 10 μM BA vs water, ppm ratio): 8.75
- Cldba (treated sample) expression ([1]; 10 μM BA, Lynx): 70 ppm
- Ckx1 induced (Ckx1): ~60 fold
- Up/down regulation ([2]; 10 μM BA vs water): up
- Ratio BA/Ctrl ([2]; 10 μM BA vs water, ppm ratio): 8.50
- Cldba (treated sample) expression ([2]; 10 μM BA, Lynx): 395 ppm
- increase in Ckx1 transcripts (Ckx1 transcripts [3]): ~30 fold
- Ckx1 transcript levels induced (Ckx1 transcripts [4]): ~15 fold
